Experiments:
gut vessel plexus = assay: Zebrafish angiogenesis assay: scoring of the gut vessel plexus in transgenic GFP fish; type: in vivo, Zebrafish (Danio rerio); set-up: Inhibition of gut vessel formation: scale not given here; conditions: for Inhibition of gut vessel formation: transgenic GFP fish incubated 24 h.p.f. to 5 d.p.f., gut vessel plexus scored by microscopy; for concentrations showing concentration-dependent inhibition of vessels: gut vessels
From the text: Zebrafish (Danio rerio) are ideal organisms for the investigation of blood vessel growth because they are transparent in the embryonic and larval stages of development so that blood vessels marked with a fluorescent marker can clearly be seen in vivo in the live animal. Zebrafish blood vessel development is well characterised and vessels can be visualised by microangiography or by expressing green fluorescent protein in blood vessels (Isogai et al. (2001) Dev Biol 230(2): 278-301; Covassin et al. (2006) Proc Natl Acad Sci USA 103(17): 6554-9). Zebrafish are also ideal vertebrate organisms in which to screen for active small molecules because the larvae can be treated with compound simply by immersion of the fish in compound solution in wells of a standard multi-well plate (12, 24 or 96-wells).
Expression of the zebrafish PR can be detected as early as 48 hours post fertilisation and an assay was therefore developed to investigate the effects of compounds on blood vessel formation in zebrafish after this time. Previous studies on inhibition of blood vessel growth have focussed on formation of intersegmental vessels (Serbedzija et al. (1999) Angiogenesis 3(4): 353-9; Parng at al. (2002) Assay Drug Dev Technol 1(1 Pt 1): 41-8) but these particular vessels are specified and begin to form prior to the time when the PR is expressed in the zebrafish embryo. Accordingly, later-developing vessels around the gut, the vascular plexus of the mid gut which branches from the subintestinal vein and supraintestinal artery, were monitored.
A similar method was developed for screening of compounds using a line of fish that express GFP under control of an enhancer that drives expression in blood vessels, spinal cord and eyes. The fish are a cross between the et19.1 enhancer:Gal4 line (Scott et al. (2007) Nat Methods 4(4): 323-6) and a UAS:GFP line made in-house in a TL zebrafish background. Transgenic zebrafish embryos or larvae expressing GFP in the blood vessel walls were treated with test compounds by immersion in aqueous medium containing the compound at the required concentration, for a period of one or more days. At the end of the incubation period the fish were immobilised on their sides and the organisation and structure of the vasculature was visualised by fluorescent microscopy, which is possible because of the transparency of zebrafish larvae. The vessels can be identified by comparison with the online Interactive Atlas of Zebrafish Vascular Anatomy (Isogai et al. (2001) Dev Biol 230(2): 278-301).
Vessels such as the dorsal aorta, posterior cardinal vein, caudal artery, caudal vein, intersegmental vessels, dorsal longitudinal anastomotic vessels and the gut vessel plexus were assessed in each fish and compared to the control group. […] A subjective score was given to the fore/mid gut vessel plexus (by assessment of the number of visible vessels and extent of spread of the plexus), ranging from “3” for a normal extensively vascularised gut, to “0” for a complete absence of any branching of vessels around the gut. The intestinal vessel plexus forms between 3 and 5 days post fertilisation (d.p.f.) and so these assays were usually scored at 5 d.p.f. The vessels could also be quantified by digital photography and quantification of fluorescence levels or number of vessels in the region of interest.
Assays using Tg 043/050 uas:GFP+/−enhancer:gal4+/−×TL (“panretinal” enhancer) fish, incubated with various compounds (see Table below) from 24 h.p.f. to 5 d.p.f. (unless otherwise stated), then scoring the extent of the gut vessel plexus by microscopy. A score of 3 represents a good, fully formed gut vessel plexus, with 20 or more branched vessels; 2 represents as slightly less well formed plexus with 10-19 vessels; 1 represents a poorly formed plexus with 1-9 vessels; 0 represents a complete absence of visible gut vessels. Each of the compounds was tested in a 24 hour MTC assay in the TL strain of wild type fish (24-48 h.p.f.). […]

[1] = tested on: TL strain of wild type fish; assay: 24 hour MTC assay in the TL strain of wild type fish; type: in vivo, Zebrafish (Danio rerio); conditions: 24-48 h.p.f.
Protocol: Assays using Tg 043/050 uas:GFP+/−enhancer:gal4+/−×TL (“panretinal” enhancer) fish, incubated with various compounds (see Table below) from 24 h.p.f. to 5 d.p.f. (unless otherwise stated), then scoring the extent of the gut vessel plexus by microscopy. A score of 3 represents a good, fully formed gut vessel plexus, with 20 or more branched vessels; 2 represents as slightly less well formed plexus with 10-19 vessels; 1 represents a poorly formed plexus with 1-9 vessels; 0 represents a complete absence of visible gut vessels. Each of the compounds was tested in a 24 hour MTC assay in the TL strain of wild type fish (24-48 h.p.f.). The MTC from this assay was used as the highest concentration for assays in the transgenic fish, with half-log intervals.

[2] = cited from earlier work

Compound	Inhibition of gut vessel formation (gut vessel plexus)	MTC [1] [µM]	other results
CC#C[C@]1(O)CC[C@H]2[C@@H]3CCC4=CC(=O)CCC4=C3[C@@H](c3ccc(N(C)C)cc3)C[C@@]21C [RU486, 17beta-hydroxy-11-beta-(4-dimethylaminophenyl)-17alpha-(prop-1-ynyl)-estra-4,9-dien-3-one]	+++	10 to 30	inhibition of gut vessel formation (in words) (gut vessel plexus): dose-dependent; rescue of vessel inhibition by progesterone (gut vessel plexus; 10 μM of each (RU486 and progesterone)): rescued by progesterone; plasma half life ([2]; after oral dosing): 20 to 30 h; time to peak plasma levels ([2]; after oral dosing): 1 to 2 h; oral bioavailability ([2]; oral): 40-70%
Cc1cc(C)c(/C=C2\C(=O)Nc3ccccc32)[nH]1 [SU5416]			inhibition of gut vessel formation (in words) (gut vessel plexus): vessel formation was inhibited
CC#CC1(O)CCC2C3CCC4=CC(=O)CCC4=C3C(c3ccc(N)cc3)CC21C (centres unmarked) [RU42848]	+	100	
COC[C@]1(OC)CC[C@H]2[C@@H]3CCC4=CC(=O)CCC4=C3[C@@H](c3ccc(/C=N/O)cc3)C[C@@]21C [Asoprisnil]	+	10	
CC1=CC(C)(C)Nc2ccc(-c3cccc(C#N)c3)cc21 [LG120753]	+	3	concentrations showing concentration-dependent inhibition of vessels (gut vessel plexus): 0.3 to 3 µM
CC1(C)OC(=O)Nc2ccc(-c3cc(F)cc(C#N)c3)cc21 [Wyeth 4h]	++	30	concentration of maximal inhibition of gut vessels (gut vessel plexus; data not shown): 30 µM
CC1(C)OC(=O)Nc2ccc(-c3ccc(F)c(Cl)c3)cc21 [Wyeth 4j]	+	1 to 3	
CC1(C)OC(=O)Nc2ccc(-c3cc(F)cc(Cl)c3)cc21 [Wyeth 4g]	++	3	
CC#CC1(O)CCC2C3CCC4=CC(=O)CCC4=C3C(c3ccc(NC)cc3)CC21C (centres unmarked) [RU42633]	+++	30	concentration of best inhibition of gut vessels (gut vessel plexus; concentration response curves, 1-5 dpf): 30 µM
CC1(C)OC(=O)Nc2ccc(-c3ccc(F)c(C#N)c3)cc21 [Wyeth 6]	+	100	
CC1=CC(C)(C)Nc2ccc(-c3csc(C#N)c3)cc21 [LG121046]	++	3 to 10	
CN(C)c1ccc(C2CC3(C)C(CCC3(O)C#CCO)C3CCC4=CC(=O)CCC4=C23)cc1 (centres unmarked) [RU42698]	++	100	concentrations showing concentration-dependent inhibition of vessels (gut vessel plexus): 30 to 100 µM
